Measurements as given in patent publication US10479786B2, “Protein kinase inhibitors” (Princeton Drug Discovery Inc, priority 2016, dated 2019).

How the values were obtained:
PDGFRβ = biological target: T1, PDGFRβ (Homo sapiens, UniProt P09619); assay: Off-chip Mobility Shift Assay, kinase inhibition; format: biochemical; settings: at 10 nM; recombinant PDGFRβ; read-out: inhibition
T1 construct: purchased Carna Biosciences, Inc

LCK = biological target: T2, LCK (Homo sapiens, UniProt P06239); assay: Off-chip Mobility Shift Assay, kinase inhibition; format: biochemical; settings: recombinant LCK; for inhibition at 0.001 µM: at 1 nM; for inhibition at 0.01 µM: at 10 nM
T2 construct: purchased Carna Biosciences, Inc

BTK = biological target: T3, BTK (Homo sapiens, UniProt Q06187); assay: Off-chip Mobility Shift Assay, kinase inhibition; format: biochemical; settings: recombinant BTK; for inhibition at 0.001 µM: at 1 nM; for inhibition at 0.01 µM: at 10 nM
T3 construct: purchased Carna Biosciences, Inc

FGR = biological target: T4, FGR (Homo sapiens, UniProt P09769); assay: Off-chip Mobility Shift Assay, kinase inhibition; format: biochemical; settings: at 10 nM; recombinant FGR; read-out: inhibition
T4 construct: purchased Carna Biosciences, Inc

ABL(E255K) = biological target: T5, ABL(E255K) (Homo sapiens, UniProt P00519, E255K); assay: Off-chip Mobility Shift Assay, kinase inhibition; format: biochemical; settings: recombinant ABL(E255K); for inhibition at 0.001 µM: at 1 nM; for inhibition at 0.01 µM: at 10 nM
T5 construct: purchased Carna Biosciences, Inc

FRK = biological target: T6, FRK (Homo sapiens, UniProt P42685); assay: Off-chip Mobility Shift Assay, kinase inhibition; format: biochemical; settings: at 10 nM; recombinant FRK
T6 construct: purchased Carna Biosciences, Inc

DDR2 = biological target: T7, DDR2 (Homo sapiens, UniProt Q16832); assay: Off-chip Mobility Shift Assay, kinase inhibition; format: biochemical; settings: at 10 nM; recombinant DDR2; read-out: inhibition
T7 construct: purchased Carna Biosciences, Inc
T7 sequence (Q16832 22-855): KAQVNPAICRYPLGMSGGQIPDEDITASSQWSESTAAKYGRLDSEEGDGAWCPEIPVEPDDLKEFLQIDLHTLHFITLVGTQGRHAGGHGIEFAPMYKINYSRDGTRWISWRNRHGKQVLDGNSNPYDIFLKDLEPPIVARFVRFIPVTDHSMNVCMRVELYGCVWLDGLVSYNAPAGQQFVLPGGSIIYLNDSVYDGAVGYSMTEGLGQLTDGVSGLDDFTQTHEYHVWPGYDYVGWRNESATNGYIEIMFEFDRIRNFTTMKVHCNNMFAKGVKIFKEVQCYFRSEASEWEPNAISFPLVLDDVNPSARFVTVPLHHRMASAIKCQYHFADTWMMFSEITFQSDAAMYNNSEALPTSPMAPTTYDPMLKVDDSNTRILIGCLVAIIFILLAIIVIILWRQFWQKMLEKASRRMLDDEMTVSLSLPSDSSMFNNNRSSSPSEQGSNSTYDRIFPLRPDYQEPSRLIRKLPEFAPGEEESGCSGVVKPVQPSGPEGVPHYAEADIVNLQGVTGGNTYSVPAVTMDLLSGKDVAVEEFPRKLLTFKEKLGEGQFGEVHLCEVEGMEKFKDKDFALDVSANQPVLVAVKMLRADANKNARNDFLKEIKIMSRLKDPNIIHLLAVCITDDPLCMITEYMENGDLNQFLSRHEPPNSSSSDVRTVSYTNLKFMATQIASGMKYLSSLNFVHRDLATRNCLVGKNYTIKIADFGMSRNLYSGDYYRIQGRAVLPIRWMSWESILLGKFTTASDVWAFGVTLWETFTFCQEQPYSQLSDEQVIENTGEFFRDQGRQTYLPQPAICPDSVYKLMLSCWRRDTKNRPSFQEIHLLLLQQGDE

PIK3CA/PIK3R1 = biological target: T8, PIK3CA/PIK3R1 (Homo sapiens, UniProt P42336); assay: Off-chip Mobility Shift Assay, kinase inhibition; format: biochemical; settings: at 10 nM; recombinant PIK3CA/PIK3R1
T8 construct: purchased Carna Biosciences, Inc

ARG = biological target: T9, ARG (Homo sapiens, UniProt P42684); assay: Off-chip Mobility Shift Assay, kinase inhibition; format: biochemical; settings: at 10 nM; recombinant ARG; read-out: inhibition
T9 construct: purchased Carna Biosciences, Inc

HCK = biological target: T10, HCK (Homo sapiens, UniProt P08631); assay: Off-chip Mobility Shift Assay, kinase inhibition; format: biochemical; settings: recombinant HCK; for inhibition at 0.001 µM: at 1 nM; for inhibition at 0.01 µM: at 10 nM, read-out: inhibition
T10 construct: purchased Carna Biosciences, Inc

SRC = biological target: T11, SRC (Homo sapiens, UniProt P12931); assay: Off-chip Mobility Shift Assay, kinase inhibition; format: biochemical; settings: recombinant SRC; for inhibition at 0.001 µM: at 1 nM; for inhibition at 0.01 µM: at 10 nM
T11 construct: purchased Carna Biosciences, Inc

SU-DHL-4 = assay: Cell inhibition assay (PrestoBlue, 48 h); format: cell-based; settings: Homo sapiens, SU-DHL-4, 48 h, SU-DHL-4 diffuse large B-cell lymphoma cells, read-out: IC50, inhibition of growth
FMS = biological target: T12, FMS (Homo sapiens, UniProt P07333); assay: Off-chip Mobility Shift Assay, kinase inhibition; format: biochemical; settings: at 10 nM; recombinant FMS
T12 construct: purchased Carna Biosciences, Inc

FYN(isoform a) = biological target: T13, FYN(isoform a) (Homo sapiens, UniProt P06241); assay: Off-chip Mobility Shift Assay, kinase inhibition; format: biochemical; settings: at 10 nM; recombinant FYN(isoform a)
T13 construct: purchased Carna Biosciences, Inc

EPHA1 = biological target: T14, EPHA1 (Homo sapiens, UniProt P21709); assay: Off-chip Mobility Shift Assay, kinase inhibition; format: biochemical; settings: at 10 nM; recombinant EPHA1
T14 construct: purchased Carna Biosciences, Inc
T14 sequence (P21709 26-976): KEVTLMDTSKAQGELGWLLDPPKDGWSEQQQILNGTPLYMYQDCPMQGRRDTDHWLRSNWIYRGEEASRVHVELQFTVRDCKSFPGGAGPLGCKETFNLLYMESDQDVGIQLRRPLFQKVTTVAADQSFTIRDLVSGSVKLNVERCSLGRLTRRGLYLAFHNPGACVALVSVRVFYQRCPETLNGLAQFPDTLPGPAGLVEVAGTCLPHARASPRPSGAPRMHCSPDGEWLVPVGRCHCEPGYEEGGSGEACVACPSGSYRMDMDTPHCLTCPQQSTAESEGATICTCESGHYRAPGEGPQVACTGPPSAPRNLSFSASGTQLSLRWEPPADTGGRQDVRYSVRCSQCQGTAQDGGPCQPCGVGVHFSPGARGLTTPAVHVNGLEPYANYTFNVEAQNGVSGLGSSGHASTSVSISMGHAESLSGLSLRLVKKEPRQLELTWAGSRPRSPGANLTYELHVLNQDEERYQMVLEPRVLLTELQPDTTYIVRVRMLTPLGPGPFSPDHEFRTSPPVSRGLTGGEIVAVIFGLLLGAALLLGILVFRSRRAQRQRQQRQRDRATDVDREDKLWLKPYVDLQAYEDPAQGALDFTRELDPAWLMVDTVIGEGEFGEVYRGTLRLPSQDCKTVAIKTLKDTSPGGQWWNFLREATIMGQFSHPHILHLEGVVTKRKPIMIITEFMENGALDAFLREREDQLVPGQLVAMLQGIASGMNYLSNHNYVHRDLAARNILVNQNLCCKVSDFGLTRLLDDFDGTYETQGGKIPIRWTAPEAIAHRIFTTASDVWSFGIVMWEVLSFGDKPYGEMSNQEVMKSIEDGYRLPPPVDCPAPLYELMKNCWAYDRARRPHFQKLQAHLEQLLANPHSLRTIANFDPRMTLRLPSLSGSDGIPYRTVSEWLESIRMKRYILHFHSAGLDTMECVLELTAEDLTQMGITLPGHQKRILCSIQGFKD

T10 sequence (P08631 whole entry): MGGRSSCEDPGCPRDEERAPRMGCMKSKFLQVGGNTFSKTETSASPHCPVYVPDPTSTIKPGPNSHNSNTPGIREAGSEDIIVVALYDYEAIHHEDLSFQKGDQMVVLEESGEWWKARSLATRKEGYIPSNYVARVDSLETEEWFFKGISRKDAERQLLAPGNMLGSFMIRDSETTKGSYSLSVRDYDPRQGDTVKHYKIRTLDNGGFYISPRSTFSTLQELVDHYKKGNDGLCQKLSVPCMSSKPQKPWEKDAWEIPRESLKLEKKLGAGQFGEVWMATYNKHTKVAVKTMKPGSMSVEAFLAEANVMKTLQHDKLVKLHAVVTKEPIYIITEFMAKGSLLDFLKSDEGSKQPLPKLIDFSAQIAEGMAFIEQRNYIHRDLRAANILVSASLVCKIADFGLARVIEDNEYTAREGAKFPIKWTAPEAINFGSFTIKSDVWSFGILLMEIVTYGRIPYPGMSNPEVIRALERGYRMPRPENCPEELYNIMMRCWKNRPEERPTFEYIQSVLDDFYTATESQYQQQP
T9 sequence (P42684 whole entry): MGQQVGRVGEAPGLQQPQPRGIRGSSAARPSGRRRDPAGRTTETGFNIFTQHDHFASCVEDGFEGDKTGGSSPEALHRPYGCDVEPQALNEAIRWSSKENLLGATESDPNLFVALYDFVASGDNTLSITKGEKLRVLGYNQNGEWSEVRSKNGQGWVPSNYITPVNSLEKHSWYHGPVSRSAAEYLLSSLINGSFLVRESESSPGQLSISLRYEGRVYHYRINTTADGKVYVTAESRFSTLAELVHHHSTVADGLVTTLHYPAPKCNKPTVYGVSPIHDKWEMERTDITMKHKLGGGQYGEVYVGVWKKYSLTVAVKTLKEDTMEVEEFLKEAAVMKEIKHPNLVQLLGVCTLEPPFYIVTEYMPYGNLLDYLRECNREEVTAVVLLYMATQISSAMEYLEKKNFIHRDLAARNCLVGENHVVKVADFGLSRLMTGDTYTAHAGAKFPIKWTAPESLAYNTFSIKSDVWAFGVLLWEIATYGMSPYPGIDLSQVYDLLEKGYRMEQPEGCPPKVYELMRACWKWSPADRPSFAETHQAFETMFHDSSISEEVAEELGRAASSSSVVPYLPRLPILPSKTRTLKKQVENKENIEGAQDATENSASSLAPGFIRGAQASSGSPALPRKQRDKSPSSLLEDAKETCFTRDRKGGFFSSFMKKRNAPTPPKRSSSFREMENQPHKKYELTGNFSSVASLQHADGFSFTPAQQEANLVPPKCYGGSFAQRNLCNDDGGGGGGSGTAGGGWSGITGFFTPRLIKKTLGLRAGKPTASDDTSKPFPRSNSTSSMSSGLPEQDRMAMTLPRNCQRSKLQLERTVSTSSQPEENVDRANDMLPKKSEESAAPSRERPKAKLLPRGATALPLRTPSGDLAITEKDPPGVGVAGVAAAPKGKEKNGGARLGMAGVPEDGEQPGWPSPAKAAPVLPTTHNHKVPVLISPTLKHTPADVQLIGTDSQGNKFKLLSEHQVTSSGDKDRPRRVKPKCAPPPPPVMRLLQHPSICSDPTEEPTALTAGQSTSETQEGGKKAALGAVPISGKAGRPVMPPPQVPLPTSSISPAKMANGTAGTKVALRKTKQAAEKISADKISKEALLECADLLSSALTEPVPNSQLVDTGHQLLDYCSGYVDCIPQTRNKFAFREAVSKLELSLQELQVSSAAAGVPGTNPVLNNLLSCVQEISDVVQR
T12 sequence (P07333 20-972): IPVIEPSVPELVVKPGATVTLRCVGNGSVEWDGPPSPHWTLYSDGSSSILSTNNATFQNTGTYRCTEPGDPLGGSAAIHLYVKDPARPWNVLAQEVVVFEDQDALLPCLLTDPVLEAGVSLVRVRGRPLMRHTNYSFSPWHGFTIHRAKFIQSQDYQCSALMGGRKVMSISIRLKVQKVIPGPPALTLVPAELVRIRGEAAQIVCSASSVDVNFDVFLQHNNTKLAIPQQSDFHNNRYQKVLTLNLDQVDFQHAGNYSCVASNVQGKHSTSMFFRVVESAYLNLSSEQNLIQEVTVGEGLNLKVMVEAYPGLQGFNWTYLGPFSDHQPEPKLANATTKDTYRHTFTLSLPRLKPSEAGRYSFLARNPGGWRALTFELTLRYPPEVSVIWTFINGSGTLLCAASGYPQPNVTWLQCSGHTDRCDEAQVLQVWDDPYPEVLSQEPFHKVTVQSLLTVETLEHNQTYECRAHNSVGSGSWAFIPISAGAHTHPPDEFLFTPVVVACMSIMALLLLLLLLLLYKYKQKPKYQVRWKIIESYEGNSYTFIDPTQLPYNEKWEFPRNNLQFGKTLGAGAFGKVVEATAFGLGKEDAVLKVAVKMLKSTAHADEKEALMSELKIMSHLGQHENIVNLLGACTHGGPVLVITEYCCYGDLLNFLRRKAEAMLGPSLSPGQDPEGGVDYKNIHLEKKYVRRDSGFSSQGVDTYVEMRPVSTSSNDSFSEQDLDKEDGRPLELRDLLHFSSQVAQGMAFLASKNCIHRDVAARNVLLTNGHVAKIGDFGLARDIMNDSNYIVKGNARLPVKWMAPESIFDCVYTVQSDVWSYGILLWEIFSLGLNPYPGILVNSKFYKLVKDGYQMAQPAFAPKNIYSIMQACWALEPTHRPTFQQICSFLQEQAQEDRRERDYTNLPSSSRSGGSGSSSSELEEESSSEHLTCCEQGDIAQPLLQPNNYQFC
T3 sequence (Q06187 whole entry): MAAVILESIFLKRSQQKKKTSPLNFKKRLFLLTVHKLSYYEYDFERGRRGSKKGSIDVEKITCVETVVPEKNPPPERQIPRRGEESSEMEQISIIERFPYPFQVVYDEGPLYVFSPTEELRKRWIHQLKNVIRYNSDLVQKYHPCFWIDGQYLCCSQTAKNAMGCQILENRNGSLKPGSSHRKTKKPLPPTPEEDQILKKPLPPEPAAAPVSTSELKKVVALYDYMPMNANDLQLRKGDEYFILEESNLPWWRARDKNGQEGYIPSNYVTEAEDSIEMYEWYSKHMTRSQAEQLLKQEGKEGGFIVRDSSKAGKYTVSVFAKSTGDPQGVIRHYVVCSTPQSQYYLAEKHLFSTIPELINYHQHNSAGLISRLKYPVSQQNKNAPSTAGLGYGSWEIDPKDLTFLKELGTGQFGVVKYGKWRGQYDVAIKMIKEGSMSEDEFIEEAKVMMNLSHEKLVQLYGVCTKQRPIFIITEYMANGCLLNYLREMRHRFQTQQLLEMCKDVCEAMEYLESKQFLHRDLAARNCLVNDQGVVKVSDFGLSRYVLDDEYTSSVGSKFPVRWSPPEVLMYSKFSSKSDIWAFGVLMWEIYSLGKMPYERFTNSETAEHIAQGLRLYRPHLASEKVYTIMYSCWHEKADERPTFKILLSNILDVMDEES
T2 sequence (P06239 whole entry): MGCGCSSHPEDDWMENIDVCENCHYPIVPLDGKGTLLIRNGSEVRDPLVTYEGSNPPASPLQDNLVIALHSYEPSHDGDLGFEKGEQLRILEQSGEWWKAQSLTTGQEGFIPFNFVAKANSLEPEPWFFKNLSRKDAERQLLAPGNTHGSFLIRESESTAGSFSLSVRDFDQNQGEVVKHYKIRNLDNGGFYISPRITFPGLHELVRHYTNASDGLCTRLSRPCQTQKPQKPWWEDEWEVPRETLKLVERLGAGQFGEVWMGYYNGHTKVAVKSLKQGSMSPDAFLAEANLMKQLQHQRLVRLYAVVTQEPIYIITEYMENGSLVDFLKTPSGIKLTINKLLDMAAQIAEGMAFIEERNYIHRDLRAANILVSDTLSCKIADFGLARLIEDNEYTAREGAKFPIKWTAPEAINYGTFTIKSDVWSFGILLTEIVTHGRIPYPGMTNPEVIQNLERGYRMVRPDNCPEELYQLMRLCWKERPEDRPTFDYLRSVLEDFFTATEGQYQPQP
T13 sequence (P06241 whole entry, canonical isoform): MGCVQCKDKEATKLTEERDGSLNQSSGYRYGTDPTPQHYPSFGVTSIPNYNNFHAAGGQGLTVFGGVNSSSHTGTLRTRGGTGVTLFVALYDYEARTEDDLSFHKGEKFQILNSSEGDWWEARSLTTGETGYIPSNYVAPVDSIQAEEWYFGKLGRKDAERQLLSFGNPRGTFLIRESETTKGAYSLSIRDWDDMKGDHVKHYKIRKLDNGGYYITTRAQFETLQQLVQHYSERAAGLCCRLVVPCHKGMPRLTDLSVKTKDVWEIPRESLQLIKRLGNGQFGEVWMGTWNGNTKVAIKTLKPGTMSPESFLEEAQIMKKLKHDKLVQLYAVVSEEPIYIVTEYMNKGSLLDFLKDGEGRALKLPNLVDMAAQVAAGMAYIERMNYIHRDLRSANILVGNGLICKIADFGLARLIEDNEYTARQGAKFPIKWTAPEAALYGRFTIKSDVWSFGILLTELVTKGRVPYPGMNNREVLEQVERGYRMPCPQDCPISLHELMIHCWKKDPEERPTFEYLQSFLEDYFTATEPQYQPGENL
T11 sequence (P12931 whole entry): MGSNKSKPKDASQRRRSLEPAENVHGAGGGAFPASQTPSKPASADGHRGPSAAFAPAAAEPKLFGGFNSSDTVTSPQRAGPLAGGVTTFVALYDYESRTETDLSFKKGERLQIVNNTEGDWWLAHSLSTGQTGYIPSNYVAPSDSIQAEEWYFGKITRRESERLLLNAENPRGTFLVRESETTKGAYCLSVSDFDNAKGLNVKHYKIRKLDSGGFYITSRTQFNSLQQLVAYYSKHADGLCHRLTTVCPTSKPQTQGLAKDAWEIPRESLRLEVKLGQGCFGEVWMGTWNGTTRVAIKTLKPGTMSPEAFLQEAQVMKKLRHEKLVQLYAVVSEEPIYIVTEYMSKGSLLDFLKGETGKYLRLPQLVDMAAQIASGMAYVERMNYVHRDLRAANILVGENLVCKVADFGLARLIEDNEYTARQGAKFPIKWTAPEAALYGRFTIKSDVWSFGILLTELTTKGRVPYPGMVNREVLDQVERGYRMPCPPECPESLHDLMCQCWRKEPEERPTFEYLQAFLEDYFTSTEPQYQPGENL

Compound | inhibition at 0.01 µM (PDGFRβ) [%] | inhibition at 0.001 µM (LCK) [%] | inhibition at 0.01 µM (LCK) [%] | inhibition at 0.001 µM (BTK) [%] | inhibition at 0.01 µM (BTK) [%] | inhibition at 0.01 µM (FGR) [%] | inhibition at 0.001 µM (ABL(E255K)) [%] | inhibition at 0.01 µM (ABL(E255K)) [%] | inhibition at 0.01 µM (FRK) [%] | inhibition at 0.01 µM (DDR2) [%] | inhibition at 0.01 µM (PIK3CA/PIK3R1) [%] | inhibition at 0.01 µM (ARG) [%] | inhibition at 0.001 µM (HCK) [%] | inhibition at 0.01 µM (HCK) [%] | inhibition at 0.001 µM (SRC) [%] | inhibition at 0.01 µM (SRC) [%] | IC50 (SU-DHL-4) [nM] | inhibition at 0.01 µM (FMS) [%] | inhibition at 0.01 µM (FYN(isoform a)) [%] | inhibition at 0.01 µM (EPHA1) [%]
[2H]c1cc(C)c(NC(=O)c2cnc(Nc3cc(N4CC[C@H](N)C4)nc(C)n3)s2)c(Cl)c1 [Compound VI, N-(2-chloro-4-dutero-6-methylphenyl)-2-[[2-methyl-6-((S)-3-aminopyrrolidin-1-yl)pyrimidin-4-yl]amino]thiazole-5-carboxamide] | > 50 | > 50 | > 50 | > 50 | > 50 | > 50 | > 50 | > 50 | > 50 | > 50 | > 50 | > 50 | > 50 | > 50 | > 50 | > 50 | < 20 | > 50 | > 50 | > 50
[2H]c1cc(C)c(NC(=O)c2cnc(Nc3cc(N4CC[C@@H](N)C4)nc(C)n3)s2)c(Cl)c1 [Compound VII, N-(2-chloro-4-deutero-6-methylphenyl)-2-[[2-methyl-6-((R)-3-aminopyrrolidin-1-yl)pyrimidin-4-yl]amino]thiazole-5-carboxamide] | > 50 | > 50 | > 50 | > 50 | > 50 | > 50 | > 50 | > 50 | > 50 | > 50 | > 50 | > 50 | > 50 | > 50 | > 50 | > 50 | < 20 | > 50 | > 50 | > 50
Cc1nc(Nc2ncc(C(=O)Nc3c(C)cccc3Cl)s2)cc(N2CCCCC2)n1 [Compound VIII, N-(2-chloro-6-methylphenyl)-2-[[2-methyl-6-(piperidin-1-yl)pyrimidin-4-yl]amino]thiazole-5-carboxamide] | > 50 | > 50 | > 50 | > 50 | > 50 | > 50 | > 50 | > 50 | > 50 | > 50 | > 50 | > 50 | > 50 | > 50 | > 50 | > 50 | < 20 | > 50 | > 50 | > 50
